Results: ChEMBL document CHEMBL5365420, “Kinetics, Thermodynamics, and Structural Effects of Quinoline-2-Carboxylates, Zinc-Binding Inhibitors of New Delhi Metallo-β-lactamase-1 Re-sensitizing Multidrug-Resistant Bacteria for Carbapenems” (J Med Chem, 2023)

Key:
[1] = Inhibition of IMP-1 (unknown origin) expressed in Escherichia coli BL21-DE3 incubated for 15 mins by absorbance based microplate reader analysis; parameters: species or system Bacteria
[2] = molecular target: T1, 72 kDa type IV collagenase (Homo sapiens, UniProt P08253); test: Inhibition of human recombinant MMP-2 CD at 10 uM using OMNIMMP as substrate incubated for 30 mins by fluorescence based analysis relative to control
Target sequence in this assay (P08253 110-660 limits assumed): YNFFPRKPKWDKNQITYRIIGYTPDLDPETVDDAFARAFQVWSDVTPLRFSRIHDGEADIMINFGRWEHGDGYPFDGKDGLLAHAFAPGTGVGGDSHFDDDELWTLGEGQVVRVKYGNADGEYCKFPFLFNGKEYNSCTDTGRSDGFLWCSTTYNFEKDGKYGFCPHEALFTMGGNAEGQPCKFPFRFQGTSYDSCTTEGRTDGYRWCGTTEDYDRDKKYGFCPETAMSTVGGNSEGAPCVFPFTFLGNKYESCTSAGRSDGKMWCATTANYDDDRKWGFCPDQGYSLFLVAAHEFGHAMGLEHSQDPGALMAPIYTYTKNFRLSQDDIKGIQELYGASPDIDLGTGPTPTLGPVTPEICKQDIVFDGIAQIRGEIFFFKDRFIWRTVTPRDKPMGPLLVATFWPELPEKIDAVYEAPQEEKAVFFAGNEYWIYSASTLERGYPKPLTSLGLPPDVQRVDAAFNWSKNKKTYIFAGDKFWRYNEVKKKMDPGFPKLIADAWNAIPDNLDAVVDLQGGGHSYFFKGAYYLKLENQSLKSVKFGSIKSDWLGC

[3] = molecular target: Carbonic anhydrase 2 (Homo sapiens) (UniProt P00918); test: Inhibition of human CA2 at 10 uM using pNPA as substrate preincubated for 15 mins followed by substrate by absorbance based analysis relative to control
[4] = Selectivity ratio of Ki for human recombinant MMP-2 CD to Ki for C-terminal 6His-tagged full length NDM-1 (unknown origin)
[5] = molecular target: T1, 72 kDa type IV collagenase; test: Binding affinity to human recombinant MMP-2 CD assessed as inhibition constant using OMNIMMP as substrate incubated for 30 mins by fluorescence based analysis
Target sequence in this assay (P08253 whole entry): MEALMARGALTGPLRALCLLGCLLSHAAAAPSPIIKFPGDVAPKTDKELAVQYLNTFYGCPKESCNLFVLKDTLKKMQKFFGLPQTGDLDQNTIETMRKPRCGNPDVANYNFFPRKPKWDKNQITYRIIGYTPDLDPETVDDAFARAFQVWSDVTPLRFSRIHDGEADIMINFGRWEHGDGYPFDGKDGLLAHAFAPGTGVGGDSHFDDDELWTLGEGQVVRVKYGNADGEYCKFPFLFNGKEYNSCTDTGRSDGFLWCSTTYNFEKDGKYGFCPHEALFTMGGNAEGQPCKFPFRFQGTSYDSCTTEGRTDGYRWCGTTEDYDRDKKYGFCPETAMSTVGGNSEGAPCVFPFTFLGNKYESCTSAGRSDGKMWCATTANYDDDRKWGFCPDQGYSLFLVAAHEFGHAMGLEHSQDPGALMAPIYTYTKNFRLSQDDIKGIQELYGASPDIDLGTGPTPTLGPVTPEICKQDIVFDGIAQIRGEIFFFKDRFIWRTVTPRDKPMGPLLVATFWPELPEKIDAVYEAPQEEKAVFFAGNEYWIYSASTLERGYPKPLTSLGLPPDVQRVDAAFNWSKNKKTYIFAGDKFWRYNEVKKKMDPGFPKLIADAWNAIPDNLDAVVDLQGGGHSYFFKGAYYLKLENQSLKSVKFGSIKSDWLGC

Escherichia coli [6] = test: Antibacterial activity against clinical isolate Escherichia coli K12 J53-ST10 684/18 expressing blaNDM-1 co-expressing blaCMY-2 and blaOXA-10 assessed as meropenem MIC at 72.88 uM measured after 20 hrs by broth microdilution assay (reference value: 24 mg/L); format: functional
Escherichia coli [7] = test: Antibacterial activity against clinical isolate Escherichia coli K12 J53-ST10 696/17 expressing blaNDM-1 co-expressing blaCMY-4 assessed as meropenem MIC at 36.44 uM measured after 20 hrs by broth microdilution assay (reference value: 12 mg/L); format: functional
Escherichia coli [8] = test: Antibacterial activity against clinical isolate Escherichia coli K12 J53-ST10 696/17 expressing blaNDM-1 co-expressing blaCMY-4 assessed as meropenem MIC at 72.88 uM measured after 20 hrs by broth microdilution assay (reference value: 24 mg/L); format: functional
Escherichia coli [9] = test: Antibacterial activity against clinical isolate Escherichia coli K12 J53-ST10 618/15 expressing blaNDM-1 assessed as meropenem MIC at 72.88 uM measured after 20 hrs by broth microdilution assay (reference value: 24 mg/L); format: functional
Acinetobacter baumannii [10] = test: Antibacterial activity against clinical isolate Acinetobacter baumannii IC 19/09 expressing blaNDM-1 co-expressing blaOXA-64 assessed as meropenem MIC at 36.44 uM measured after 20 hrs by broth microdilution assay (reference value: 12 mg/L); format: functional
Acinetobacter baumannii [11] = test: Antibacterial activity against clinical isolate Acinetobacter baumannii IC 19/09 expressing blaNDM-1 co-expressing blaOXA-64 assessed as meropenem MIC at 72.88 uM measured after 20 hrs by broth microdilution assay (reference value: 24 mg/L); format: functional
Escherichia coli [12] = test: Antibacterial activity against clinical isolate Escherichia coli ST1012/10 expressing blaNDM-1 co-expressing blaTEM-1/blaCTX-M-15/blaOXA-1 and blaOXA-2 assessed as meropenem MIC at 36.44 uM measured after 20 hrs by broth microdilution assay (reference value: 12 mg/L); format: functional
Escherichia coli [13] = test: Antibacterial activity against clinical isolate Escherichia coli ST1012/10 expressing blaNDM-1 co-expressing blaTEM-1/blaCTX-M-15/blaOXA-1 and blaOXA-2 assessed as meropenem MIC at 72.88 uM measured after 20 hrs by broth microdilution assay (reference value: 24 mg/L); format: functional
Klebsiella pneumoniae [14] = test: Antibacterial activity against clinical isolate Klebsiella pneumoniae ST1493/10 expressing blaNDM-1 co-expressing blaCMY-2like/blaTEM-1/blaCTX-M-15/blaSHV-28/blaOXA-1 and blaOXA-9 assessed as meropenem MIC at 72.88 uM measured after 20 hrs by broth microdilution assay (reference value: 24 mg/L); format: functional
Klebsiella pneumoniae [15] = test: Antibacterial activity against clinical isolate Klebsiella pneumoniae 50/11 expressing blaNDM-1 co-expressing blaTEM-1/blaSHV-28/blaTEM-1/blaCTX-M-15 and blaOXA-1 assessed as meropenem MIC at 72.88 uM measured after 20 hrs by broth microdilution assay (reference value: 24 mg/L); format: functional
Klebsiella pneumoniae [16] = test: Antibacterial activity against clinical isolate Klebsiella pneumoniae 50/20 expressing blaNDM-5 co-expressing blaTEM-1 and blaSHV-1 assessed as meropenem MIC at 36.44 uM measured after 20 hrs by broth microdilution assay (reference value: 12 mg/L); format: functional
Klebsiella pneumoniae [17] = test: Antibacterial activity against clinical isolate Klebsiella pneumoniae 50/20 expressing blaNDM-5 co-expressing blaTEM-1 and blaSHV-1 assessed as meropenem MIC at 72.88 uM measured after 20 hrs by broth microdilution assay (reference value: 24 mg/L); format: functional
Escherichia coli [18] = test: Antibacterial activity against clinical isolate Escherichia coli 371/12 expressing blaNDM-7 co-expressing blaCTX-M-15 and blaOXA-1 assessed as meropenem MIC at 36.44 uM measured after 20 hrs by broth microdilution assay (reference value: 12 mg/L); format: functional
Escherichia coli [19] = test: Antibacterial activity against clinical isolate Escherichia coli 371/12 expressing blaNDM-7 co-expressing blaCTX-M-15 and blaOXA-1 assessed as meropenem MIC at 72.88 uM measured after 20 hrs by broth microdilution assay (reference value: 24 mg/L); format: functional
Klebsiella pneumoniae [20] = test: Antibacterial activity against clinical isolate Klebsiella pneumoniae ST23213/19 expressing blaNDM-1 co-expressing blaOXA-48/blaSHV-11/blaCTX-M-15 and blaOXA-1 assessed as meropenem MIC at 36.44 uM measured after 20 hrs by broth microdilution assay (reference value: 12 mg/L); format: functional
Klebsiella pneumoniae [21] = test: Antibacterial activity against clinical isolate Klebsiella pneumoniae ST23213/19 expressing blaNDM-1 co-expressing blaOXA-48/blaSHV-11/blaCTX-M-15 and blaOXA-1 assessed as meropenem MIC at 72.88 uM measured after 20 hrs by broth microdilution assay (reference value: 24 mg/L); format: functional
Klebsiella pneumoniae [22] = test: Antibacterial activity against clinical isolate Klebsiella pneumoniae 62/07 expressing blaVIM-19 co-expressing blaSHV-1/blaCTX-M-14 and blaCMY-4 assessed as meropenem MIC at 36.44 uM measured after 20 hrs by broth microdilution assay (reference value: 12 mg/L); format: functional
Klebsiella pneumoniae [23] = test: Antibacterial activity against clinical isolate Klebsiella pneumoniae 62/07 expressing blaVIM-19 co-expressing blaSHV-1/blaCTX-M-14 and blaCMY-4 assessed as meropenem MIC at 72.88 uM measured after 20 hrs by broth microdilution assay (reference value: 24 mg/L); format: functional
[24] = molecular target: T2, Metallo-beta-lactamase type 2 (Bacteria, UniProt C7C422)
Description: Binding affinity to C-terminal 6His-tagged full length biotin-labeled NDM-1 (unknown origin) expressed in Escherichia coli BL21-DE3 assessed as dissociation constant by BLI assay

[25] = molecular target: T2, Metallo-beta-lactamase type 2; remark: listed apart in the source
Description: Binding affinity to C-terminal 6His-tagged full length truncated NDM-1 (unknown origin) expressed in Escherichia coli BL21-DE3 assessed as dissociation constant by isothermal titration calorimetric analysis

[26] = molecular target: Metallo-beta-lactamase type 2 (Bacteria) (UniProt C7C422)
Description: Binding affinity to C-terminal 6His-tagged full length truncated NDM-1 (unknown origin) expressed in Escherichia coli BL21-DE3 assessed as change in Gibbs free energy by isothermal titration calorimetric analysis

[27] = molecular target: Metallo-beta-lactamase type 2 (Bacteria) (UniProt C7C422); remark: listed apart in the source
Description: Binding affinity to C-terminal 6His-tagged full length truncated NDM-1 (unknown origin) expressed in Escherichia coli BL21-DE3 assessed as change in entropy by isothermal titration calorimetric analysis

[28] = molecular target: Metallo-beta-lactamase type 2 (Bacteria) (UniProt C7C422); remark: listed apart in the source
Description: Binding affinity to C-terminal 6His-tagged full length truncated NDM-1 (unknown origin) expressed in Escherichia coli BL21-DE3 assessed as change in enthalpy in presence of EDTA by isothermal titration calorimetric analysis

[29] = molecular target: Metallo-beta-lactamase type 2 (Bacteria) (UniProt C7C422); remark: listed apart in the source

Sequence of Metallo-beta-lactamase type 2 (Bacteria) (C7C422 whole entry): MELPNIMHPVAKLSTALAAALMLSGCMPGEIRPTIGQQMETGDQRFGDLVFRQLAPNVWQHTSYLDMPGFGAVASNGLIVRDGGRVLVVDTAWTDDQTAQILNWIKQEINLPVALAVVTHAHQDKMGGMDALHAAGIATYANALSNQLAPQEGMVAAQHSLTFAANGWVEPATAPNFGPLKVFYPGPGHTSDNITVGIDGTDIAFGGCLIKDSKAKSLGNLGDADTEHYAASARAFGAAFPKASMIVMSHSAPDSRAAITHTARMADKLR
T2 sequence (C7C422 whole entry): as above

O=C(O)c1ccc2cccc(NS(=O)(=O)c3ccccn3)c2n1
IC50 [1]: 0.37 µM
inhibition [2]: > 90%
inhibition [3]: < 5%
Ratio Ki [4]: 40
Ki [5]: 5.78 µM
MIC (Escherichia coli [6]): ≤ 0.125 mg/L
MIC (Escherichia coli [7]): ≤ 0.125 mg/L
MIC (Escherichia coli [8]): ≤ 0.125 mg/L
MIC (Escherichia coli [9]): ≤ 0.125 mg/L
MIC (Acinetobacter baumannii [10]): 4 mg/L
MIC (Acinetobacter baumannii [11]): 1 mg/L
MIC (Escherichia coli [12]): ≤ 0.125 mg/L
MIC (Escherichia coli [13]): ≤ 0.125 mg/L
MIC (Klebsiella pneumoniae [14]): 1 mg/L
MIC (Klebsiella pneumoniae [15]): ≤ 0.125 mg/L
MIC (Klebsiella pneumoniae [16]): 0.5 mg/L
MIC (Klebsiella pneumoniae [17]): ≤ 0.125 mg/L
MIC (Escherichia coli [18]): 8 mg/L
MIC (Escherichia coli [19]): ≤ 0.125 mg/L
MIC (Klebsiella pneumoniae [20]): 16 mg/L
MIC (Klebsiella pneumoniae [21]): 16 mg/L
MIC (Klebsiella pneumoniae [22]): 2 mg/L
MIC (Klebsiella pneumoniae [23]): 0.25 mg/L
Kd [24]: 14.1 µM
Kd [25]: 0.105 µM
deltaG [26]: -39.9 kJ/mol
-TdeltaS [27]: -12.2 kJ/mol
deltaH [28]: -40 kJ/mol
ΔTm [29]: 15 °C
